# Tests used:
# keratinocytes = details: cited from earlier work
# [1] = test system: monocytic cell line THP-1; details: cited from earlier work
# [2] = test system: phosphorylation of eIF4E at ser209 in MV4.11 cell line; test: cells; assay type: cell-based; details: Homo sapiens; MV4.11 cells, 1.5 hr compound incubation, average of at least 2 independent experiments; read-out: plc50 elF4E (converted)
# Procedure: MNK activity in cells was measured by monitoring the phosphorylation of eIF4E at ser209, the known endogenous substrate of MNK1/2, in cell lysates. […] The assay detection is based on the formation of sandwich antibody complexes coupled to donor and acceptor beads. Excitation at 680 nm causes the transfer of a singlet oxygen species between donor and acceptor beads when they are in close proximity by binding to the analyte […], which results in the emission of light at 520-620 nm.
# Cells were then lysed and the Aphascreen Surefire protocol followed according to manufacturer's recommendations. 8 ul Acceptor beads (1:50 dilution in kit activation buffer) was added to lysate, shaken 150 rpm for 2 min and incubated for 1.5 hr at room temperature. 3 ul Donor beads (1:20 dilution in kit dilution buffer) were then added, shaken 150 rpm for 2 min and incubated for a further 1.5 hr at room temperature after which the plates were read on Pherastar FS using Alphascreen optic module.
# Data were normalised relative to untreated DMSO only controls and curves repeated in duplicate within experiments. Data reported are averages of at least 2 independent experiments.
# Full-length human MNK2 = Full-length human MNK2 (Homo sapiens, UniProt Q9HBH9, T379D); test: MNK2 biochemical IC50 assay (Caliper mobility shift)
# Full-length human MNK1 = Full-length human MNK1 (Homo sapiens, UniProt Q9BUB5, T385D); test: MNK1 biochemical IC50 assay (Caliper mobility shift)
# [3] = test system: B16 melanoma lung metastases; details: in vivo; cited from earlier work
# HCT116 xenograft = HCT116 xenograft models; cited from earlier work
# eIF4E phosphorylation = details: after oral administration, normal mouse tissues and xenografted tumors; cited from earlier work
# Chain of Full-length human MNK2 (Q9HBH9 whole entry T379D): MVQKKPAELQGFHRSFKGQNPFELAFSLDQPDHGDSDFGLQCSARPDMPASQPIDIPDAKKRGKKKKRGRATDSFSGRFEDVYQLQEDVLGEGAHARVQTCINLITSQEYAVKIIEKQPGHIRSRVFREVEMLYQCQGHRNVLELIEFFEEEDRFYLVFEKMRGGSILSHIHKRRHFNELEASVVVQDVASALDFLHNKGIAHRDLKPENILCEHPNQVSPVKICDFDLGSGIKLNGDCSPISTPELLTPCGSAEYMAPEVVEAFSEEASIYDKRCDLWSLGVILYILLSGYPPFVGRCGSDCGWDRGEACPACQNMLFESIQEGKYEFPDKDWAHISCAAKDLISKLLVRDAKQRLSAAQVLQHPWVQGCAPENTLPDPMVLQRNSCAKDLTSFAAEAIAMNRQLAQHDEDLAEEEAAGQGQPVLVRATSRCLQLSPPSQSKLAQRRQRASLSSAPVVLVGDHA
# Chain of Full-length human MNK1 (Q9BUB5 1-424 isoform Q9BUB5-2 T344D): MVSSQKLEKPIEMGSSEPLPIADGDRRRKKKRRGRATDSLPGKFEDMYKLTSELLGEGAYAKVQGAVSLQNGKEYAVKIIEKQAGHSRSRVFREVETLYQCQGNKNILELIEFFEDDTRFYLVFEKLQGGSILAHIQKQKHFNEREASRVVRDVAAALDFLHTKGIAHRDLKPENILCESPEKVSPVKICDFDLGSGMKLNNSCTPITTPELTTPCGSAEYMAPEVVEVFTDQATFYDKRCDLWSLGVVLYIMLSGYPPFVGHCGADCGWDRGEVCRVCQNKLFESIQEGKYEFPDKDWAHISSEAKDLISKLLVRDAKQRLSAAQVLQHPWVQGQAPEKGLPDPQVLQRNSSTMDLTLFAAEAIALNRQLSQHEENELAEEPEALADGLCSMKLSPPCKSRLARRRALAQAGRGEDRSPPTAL
smiles,measurement,setting,value
Nc1ncnc2n[nH]c(Nc3ccc(F)cc3)c12 [CGP57380],TNF-production,keratinocytes,reduced TNF-production
same,expression of IL-1β and IL-6,keratinocytes,decreased expression
same,block of release of IL-1β and IL-8 induced by Shiga toxin,[1],73-96%
"Cn1ccc2ncnc(Nc3ccc(F)cc3OC3CC3)c21 [Example 24, N-[2-(cyclopropoxy)-4-fluoro-phenyl]-5-methyl-pyrrolo[3,2-d]pyrimidin-4-amine]",IC50,[2],79.4 nM
same,IC50,Full-length human MNK2,200 nM
same,IC50,Full-length human MNK1,501 nM
CC(=O)C1=C(O)C=C2Oc3c(C(N)=O)c(O)cc(O)c3[C@]2(C)C1=O [cercosporamide],outgrowth of B16 melanoma lung metastases,[3],suppressing the outgrowth
same,tumor growth,HCT116 xenograft,reducing tumor growth
same,time to effectively block eIF4E phosphorylation,eIF4E phosphorylation,≤ 30 min
"Cn1ccc2ncnc(Nc3ccc(F)cc3O[C@H]3CCOC3)c21 [Example 15, N-[4-fluoro-2-[(3S)-tetrahydrofuran-3-yl]oxy-phenyl]-5-methyl-pyrrolo[3,2-d]pyrimidin-4-amine]",IC50,[2],31.6 nM
same,IC50,Full-length human MNK2,158 nM
same,IC50,Full-length human MNK1,398 nM
"CO[C@@H]1CCC[C@H](Oc2cc(F)ccc2Nc2ncnc3ccn(C)c23)C1 [Example 21, N-[4-fluoro-2-[(1S,3R)-3-methoxycyclohexoxy]phenyl]-5-methyl-pyrrolo[3,2-d]pyrimidin-4-amine]",IC50,[2],25.1 nM
same,IC50,Full-length human MNK2,79.4 nM
same,IC50,Full-length human MNK1,158 nM
"CO[C@H]1CCCC[C@@H]1Oc1cc(F)ccc1Nc1ncnc2ccn(C)c12 [Example 37, N-[4-fluoro-2-[(1S,2S)-2-methoxycyclohexoxy]phenyl]-5-methyl-pyrrolo[3,2-d]pyrimidin-4-amine]",IC50,[2],251 nM
same,IC50,Full-length human MNK2,794 nM
same,IC50,Full-length human MNK1,15800 nM
"CCOc1ncccc1Nc1ncnc2ccn(C)c12 [Example 34, N-(2-ethoxy-3-pyridyl)-5-methyl-pyrrolo[3,2-d]pyrimidin-4-amine]",IC50,[2],126 nM
same,IC50,Full-length human MNK2,251 nM
same,IC50,Full-length human MNK1,398 nM
"Cc1ccc(Nc2ncnc3ccn(C)c23)c(OC(C)C)c1 [Example 8, N-(2-isopropoxy-4-methyl-phenyl)-5-methyl-pyrrolo[3,2-d]pyrimidin-4-amine]",IC50,[2],501 nM
same,IC50,Full-length human MNK2,1260 nM
same,IC50,Full-length human MNK1,3160 nM
"CC(C)Oc1cc(F)ccc1Nc1ncnc2ccn(C(C)C)c12 [Example 3, N-(4-fluoro-2-isopropoxy-phenyl)-5-isopropyl-pyrrolo[3,2-d]pyrimidin-4-amine]",IC50,[2],158 nM
same,IC50,Full-length human MNK2,501 nM
same,IC50,Full-length human MNK1,1000 nM
"CO[C@H]1CCC[C@@H](Oc2cc(F)ccc2Nc2ncnc3ccn(C)c23)C1 [Example 20, N-[4-fluoro-2-[(1R,3S)-3-methoxycyclohexoxy]phenyl]-5-methyl-pyrrolo[3,2-d]pyrimidin-4-amine]",IC50,[2],200 nM
same,IC50,Full-length human MNK2,631 nM
same,IC50,Full-length human MNK1,3160 nM
"COCCn1ccc2ncnc(Nc3ccc(F)cc3OC(C)C)c21 [Example 5, N-(4-fluoro-2-isopropoxy-phenyl)-5-(2-methoxyethyl)pyrrolo[3,2-d]pyrimidin-4-amine]",IC50,[2],1000 nM
same,IC50,Full-length human MNK2,2000 nM
same,IC50,Full-length human MNK1,3160 nM
"C[C@@H](CF)Oc1cc(F)ccc1Nc1ncnc2ccn(C)c12 [Example 22, N-[4-fluoro-2-[(1S)-2-fluoro-1-methyl-ethoxy]phenyl]-5-methyl-pyrrolo[3,2-d]pyrimidin-4-amine]",IC50,[2],15.8 nM
same,IC50,Full-length human MNK2,50.1 nM
same,IC50,Full-length human MNK1,100 nM
"COc1ccc(Nc2ncnc3ccn(C)c23)c(OC(C)C)c1 [Example 10, N-(2-isopropoxy-4-methoxy-phenyl)-5-methyl-pyrrolo[3,2-d]pyrimidin-4-amine]",IC50,[2],200 nM
same,IC50,Full-length human MNK2,1260 nM
same,IC50,Full-length human MNK1,10000 nM
"CC(C)Oc1cc(Cl)ccc1Nc1ncnc2ccn(C)c12 [Example 9, N-(4-chloro-2-isopropoxy-phenyl)-5-methyl-pyrrolo[3,2-d]pyrimidin-4-amine]",IC50,[2],79.4 nM
same,IC50,Full-length human MNK2,79.4 nM
same,IC50,Full-length human MNK1,158 nM

# From patent US10604524B2, “Pyrropyrimidine compounds as MNKs inhibitors” (LIFEARC, priority 2015, dated 2020)
